Results from ChEMBL document CHEMBL3991601, “The target landscape of clinical kinase drugs” (Science, 2017).
Calls of active or inactive are those of the source. For most assays here, no stated cut-off is given here; in the data, actives have a measured Kd and inactives only a lower limit.

Assays:
Adenosine kinase = Adenosine kinase (Homo sapiens, UniProt P55263)
[1] = biological target: RAC-gamma serine/threonine-protein kinase (Homo sapiens, UniProt Q9Y243)
[2] = biological target: Cyclin-dependent kinase 13 (Homo sapiens, UniProt Q14004)
[3] = biological target: T1, Phenylalanine--tRNA ligase beta subunit (Homo sapiens, UniProt Q9NSD9)
T1 sequence (Q9NSD9 whole entry): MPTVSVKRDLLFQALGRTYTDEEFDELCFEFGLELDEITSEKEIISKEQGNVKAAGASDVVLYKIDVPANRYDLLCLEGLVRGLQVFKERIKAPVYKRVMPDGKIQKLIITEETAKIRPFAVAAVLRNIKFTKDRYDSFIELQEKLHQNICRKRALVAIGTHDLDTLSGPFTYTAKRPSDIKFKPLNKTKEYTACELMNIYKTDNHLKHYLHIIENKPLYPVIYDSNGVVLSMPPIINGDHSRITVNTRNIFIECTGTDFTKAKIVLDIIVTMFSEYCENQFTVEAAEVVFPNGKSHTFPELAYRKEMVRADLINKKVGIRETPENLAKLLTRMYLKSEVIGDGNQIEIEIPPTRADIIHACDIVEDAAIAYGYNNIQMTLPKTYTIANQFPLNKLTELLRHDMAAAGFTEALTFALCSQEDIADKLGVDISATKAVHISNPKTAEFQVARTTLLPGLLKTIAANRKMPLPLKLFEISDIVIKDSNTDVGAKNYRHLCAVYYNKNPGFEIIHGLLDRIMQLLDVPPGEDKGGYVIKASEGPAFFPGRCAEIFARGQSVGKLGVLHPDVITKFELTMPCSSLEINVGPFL

[4] = biological target: Protein kinase C alpha type (Homo sapiens, UniProt P17252)
[5] = biological target: Ras-related protein Rab-6A (Homo sapiens, UniProt P20340)
[6] = biological target: Ribosomal protein S6 kinase alpha-6 (Homo sapiens, UniProt Q9UK32)
[7] = biological target: T2, Exosome RNA helicase MTR4 (Homo sapiens, UniProt P42285)
T2 sequence (P42285 whole entry): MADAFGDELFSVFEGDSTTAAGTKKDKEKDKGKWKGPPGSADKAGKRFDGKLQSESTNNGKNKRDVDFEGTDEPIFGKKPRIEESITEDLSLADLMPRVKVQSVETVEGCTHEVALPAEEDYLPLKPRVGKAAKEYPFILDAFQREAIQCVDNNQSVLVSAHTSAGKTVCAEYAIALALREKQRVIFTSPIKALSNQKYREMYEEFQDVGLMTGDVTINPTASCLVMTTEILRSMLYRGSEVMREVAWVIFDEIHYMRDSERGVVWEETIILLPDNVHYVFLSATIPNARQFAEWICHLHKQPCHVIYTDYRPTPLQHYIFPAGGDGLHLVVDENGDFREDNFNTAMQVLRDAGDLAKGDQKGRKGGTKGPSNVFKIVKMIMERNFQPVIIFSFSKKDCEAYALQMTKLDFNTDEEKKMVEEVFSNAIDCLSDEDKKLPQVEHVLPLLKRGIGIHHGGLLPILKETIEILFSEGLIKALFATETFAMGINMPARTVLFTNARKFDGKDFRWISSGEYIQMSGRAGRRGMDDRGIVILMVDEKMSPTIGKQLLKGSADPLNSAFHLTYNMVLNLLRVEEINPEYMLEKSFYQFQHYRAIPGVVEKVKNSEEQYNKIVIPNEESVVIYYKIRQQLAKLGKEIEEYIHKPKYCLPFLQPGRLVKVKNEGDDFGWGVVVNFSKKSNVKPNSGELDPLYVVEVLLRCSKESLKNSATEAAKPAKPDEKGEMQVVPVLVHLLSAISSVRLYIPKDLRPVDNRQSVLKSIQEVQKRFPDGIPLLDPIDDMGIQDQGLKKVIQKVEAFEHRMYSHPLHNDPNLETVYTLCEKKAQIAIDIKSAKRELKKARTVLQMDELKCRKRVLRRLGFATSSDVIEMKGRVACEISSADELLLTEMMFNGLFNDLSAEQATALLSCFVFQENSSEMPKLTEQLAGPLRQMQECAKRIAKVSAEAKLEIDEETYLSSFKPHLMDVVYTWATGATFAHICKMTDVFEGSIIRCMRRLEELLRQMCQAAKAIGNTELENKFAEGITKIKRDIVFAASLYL

[8] = biological target: Proto-oncogene tyrosine-protein kinase Src (Homo sapiens, UniProt P12931)
[9] = biological target: T3, Serine/threonine-protein kinase TAO3 (Homo sapiens, UniProt Q9H2K8)
T3 sequence (Q9H2K8 whole entry): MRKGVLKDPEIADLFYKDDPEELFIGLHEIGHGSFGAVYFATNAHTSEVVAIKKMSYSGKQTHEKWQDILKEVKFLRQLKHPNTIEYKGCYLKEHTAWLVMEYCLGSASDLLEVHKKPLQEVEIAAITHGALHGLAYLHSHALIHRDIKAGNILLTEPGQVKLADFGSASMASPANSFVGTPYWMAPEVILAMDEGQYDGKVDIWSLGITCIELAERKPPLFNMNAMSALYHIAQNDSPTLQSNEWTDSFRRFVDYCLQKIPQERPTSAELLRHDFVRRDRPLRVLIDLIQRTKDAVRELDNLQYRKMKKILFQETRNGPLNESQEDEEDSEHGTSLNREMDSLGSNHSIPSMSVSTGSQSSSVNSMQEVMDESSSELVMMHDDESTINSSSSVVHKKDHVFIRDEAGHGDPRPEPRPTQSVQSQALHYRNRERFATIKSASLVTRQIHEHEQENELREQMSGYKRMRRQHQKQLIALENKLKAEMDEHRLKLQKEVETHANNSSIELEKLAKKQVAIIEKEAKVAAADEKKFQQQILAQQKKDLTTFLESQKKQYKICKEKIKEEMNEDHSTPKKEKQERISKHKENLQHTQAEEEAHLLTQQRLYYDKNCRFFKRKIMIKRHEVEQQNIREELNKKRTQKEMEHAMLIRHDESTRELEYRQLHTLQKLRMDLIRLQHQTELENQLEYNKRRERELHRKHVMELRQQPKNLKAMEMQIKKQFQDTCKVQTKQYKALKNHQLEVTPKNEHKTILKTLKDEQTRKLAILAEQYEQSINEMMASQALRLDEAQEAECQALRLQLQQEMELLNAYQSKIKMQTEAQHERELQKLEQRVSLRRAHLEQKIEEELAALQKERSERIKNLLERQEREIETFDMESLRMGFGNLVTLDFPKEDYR

Wee1-like protein kinase = Wee1-like protein kinase (Homo sapiens, UniProt P30291)
Chain of Wee1-like protein kinase (P30291 whole entry): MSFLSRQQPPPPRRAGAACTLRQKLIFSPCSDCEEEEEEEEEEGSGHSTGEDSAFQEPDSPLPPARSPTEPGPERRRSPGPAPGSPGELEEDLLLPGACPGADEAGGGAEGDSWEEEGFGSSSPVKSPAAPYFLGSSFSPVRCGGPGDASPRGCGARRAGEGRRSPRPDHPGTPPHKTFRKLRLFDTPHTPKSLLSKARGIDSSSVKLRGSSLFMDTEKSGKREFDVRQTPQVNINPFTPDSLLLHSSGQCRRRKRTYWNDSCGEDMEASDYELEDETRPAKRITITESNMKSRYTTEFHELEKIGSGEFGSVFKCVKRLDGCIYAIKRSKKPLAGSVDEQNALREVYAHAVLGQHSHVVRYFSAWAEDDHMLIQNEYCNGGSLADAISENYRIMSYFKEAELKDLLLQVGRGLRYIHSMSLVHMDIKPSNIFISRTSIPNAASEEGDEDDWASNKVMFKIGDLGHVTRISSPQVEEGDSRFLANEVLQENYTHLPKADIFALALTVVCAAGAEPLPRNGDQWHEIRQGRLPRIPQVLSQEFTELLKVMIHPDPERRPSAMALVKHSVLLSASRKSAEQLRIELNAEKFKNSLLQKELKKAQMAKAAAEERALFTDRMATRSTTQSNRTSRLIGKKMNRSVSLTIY

Chain of Adenosine kinase (P55263 whole entry): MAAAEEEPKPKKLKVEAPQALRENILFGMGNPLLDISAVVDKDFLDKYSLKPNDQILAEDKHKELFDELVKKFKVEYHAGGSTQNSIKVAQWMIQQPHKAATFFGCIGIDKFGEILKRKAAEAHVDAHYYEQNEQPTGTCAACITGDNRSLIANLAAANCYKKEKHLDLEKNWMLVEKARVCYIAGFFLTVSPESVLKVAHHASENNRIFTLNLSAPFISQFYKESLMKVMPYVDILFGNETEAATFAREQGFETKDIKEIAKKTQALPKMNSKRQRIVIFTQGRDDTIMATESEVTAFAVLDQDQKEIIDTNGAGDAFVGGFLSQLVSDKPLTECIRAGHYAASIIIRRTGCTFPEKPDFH
Chain of Cyclin-dependent kinase 13 (Q14004 whole entry): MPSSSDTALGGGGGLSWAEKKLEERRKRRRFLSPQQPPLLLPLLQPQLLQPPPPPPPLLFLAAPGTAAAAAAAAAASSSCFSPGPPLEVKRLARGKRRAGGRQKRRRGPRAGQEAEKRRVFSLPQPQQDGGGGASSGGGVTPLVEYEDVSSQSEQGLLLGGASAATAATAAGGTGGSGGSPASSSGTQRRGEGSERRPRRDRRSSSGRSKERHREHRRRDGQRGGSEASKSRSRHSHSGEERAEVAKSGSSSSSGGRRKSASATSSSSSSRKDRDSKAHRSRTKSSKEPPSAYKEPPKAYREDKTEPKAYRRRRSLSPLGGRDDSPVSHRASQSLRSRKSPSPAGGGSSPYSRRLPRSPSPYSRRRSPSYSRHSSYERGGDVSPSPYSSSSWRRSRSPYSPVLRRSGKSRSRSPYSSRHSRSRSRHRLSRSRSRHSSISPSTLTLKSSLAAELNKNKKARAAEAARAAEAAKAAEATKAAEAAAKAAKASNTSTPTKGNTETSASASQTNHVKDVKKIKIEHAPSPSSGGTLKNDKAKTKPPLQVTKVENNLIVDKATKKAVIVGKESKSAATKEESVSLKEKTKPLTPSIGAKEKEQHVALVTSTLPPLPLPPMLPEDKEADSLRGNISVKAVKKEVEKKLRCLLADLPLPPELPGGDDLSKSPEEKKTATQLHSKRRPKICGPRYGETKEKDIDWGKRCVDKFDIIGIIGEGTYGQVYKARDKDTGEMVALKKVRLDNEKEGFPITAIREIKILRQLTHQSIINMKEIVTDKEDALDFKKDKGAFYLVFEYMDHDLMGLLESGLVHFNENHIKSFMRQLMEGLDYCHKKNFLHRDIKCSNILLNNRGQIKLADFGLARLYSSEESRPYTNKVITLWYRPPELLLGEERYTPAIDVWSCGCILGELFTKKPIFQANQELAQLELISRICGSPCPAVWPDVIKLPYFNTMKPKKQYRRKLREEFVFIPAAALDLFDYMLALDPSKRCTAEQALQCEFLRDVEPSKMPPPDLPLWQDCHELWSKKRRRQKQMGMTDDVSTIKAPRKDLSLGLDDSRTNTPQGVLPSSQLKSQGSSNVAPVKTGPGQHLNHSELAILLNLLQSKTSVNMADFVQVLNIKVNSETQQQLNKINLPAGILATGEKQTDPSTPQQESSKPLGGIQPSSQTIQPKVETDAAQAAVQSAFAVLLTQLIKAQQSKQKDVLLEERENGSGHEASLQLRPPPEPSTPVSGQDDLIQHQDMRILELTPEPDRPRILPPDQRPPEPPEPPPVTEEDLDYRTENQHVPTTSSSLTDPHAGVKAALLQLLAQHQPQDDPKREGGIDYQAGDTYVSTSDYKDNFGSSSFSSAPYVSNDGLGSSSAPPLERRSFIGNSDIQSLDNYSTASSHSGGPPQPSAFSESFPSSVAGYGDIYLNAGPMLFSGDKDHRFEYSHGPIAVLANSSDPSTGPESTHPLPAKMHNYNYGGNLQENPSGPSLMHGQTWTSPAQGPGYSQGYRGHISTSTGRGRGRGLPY
Chain of Ras-related protein Rab-6A (P20340 whole entry): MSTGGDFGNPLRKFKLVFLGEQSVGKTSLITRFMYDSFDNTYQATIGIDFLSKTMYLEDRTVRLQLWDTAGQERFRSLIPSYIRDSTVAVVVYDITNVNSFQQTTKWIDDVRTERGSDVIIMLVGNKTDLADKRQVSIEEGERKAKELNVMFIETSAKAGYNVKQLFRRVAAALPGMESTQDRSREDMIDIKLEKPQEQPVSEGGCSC
Chain of Proto-oncogene tyrosine-protein kinase Src (P12931 2-536 limits assumed): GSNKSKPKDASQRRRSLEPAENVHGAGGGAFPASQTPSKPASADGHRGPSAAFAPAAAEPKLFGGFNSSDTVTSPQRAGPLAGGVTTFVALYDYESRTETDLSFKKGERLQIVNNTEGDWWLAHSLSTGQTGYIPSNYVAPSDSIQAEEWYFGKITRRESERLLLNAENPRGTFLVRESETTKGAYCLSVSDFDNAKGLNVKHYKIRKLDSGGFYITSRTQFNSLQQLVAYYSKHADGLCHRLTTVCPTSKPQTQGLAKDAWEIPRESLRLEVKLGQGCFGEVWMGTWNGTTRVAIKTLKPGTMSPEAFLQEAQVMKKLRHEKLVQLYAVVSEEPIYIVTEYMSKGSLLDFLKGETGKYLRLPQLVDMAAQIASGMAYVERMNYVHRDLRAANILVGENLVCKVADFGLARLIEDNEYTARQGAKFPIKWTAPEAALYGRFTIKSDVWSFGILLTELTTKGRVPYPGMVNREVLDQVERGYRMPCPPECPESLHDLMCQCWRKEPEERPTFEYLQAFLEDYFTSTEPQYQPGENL
Chain of Ribosomal protein S6 kinase alpha-6 (Q9UK32 whole entry): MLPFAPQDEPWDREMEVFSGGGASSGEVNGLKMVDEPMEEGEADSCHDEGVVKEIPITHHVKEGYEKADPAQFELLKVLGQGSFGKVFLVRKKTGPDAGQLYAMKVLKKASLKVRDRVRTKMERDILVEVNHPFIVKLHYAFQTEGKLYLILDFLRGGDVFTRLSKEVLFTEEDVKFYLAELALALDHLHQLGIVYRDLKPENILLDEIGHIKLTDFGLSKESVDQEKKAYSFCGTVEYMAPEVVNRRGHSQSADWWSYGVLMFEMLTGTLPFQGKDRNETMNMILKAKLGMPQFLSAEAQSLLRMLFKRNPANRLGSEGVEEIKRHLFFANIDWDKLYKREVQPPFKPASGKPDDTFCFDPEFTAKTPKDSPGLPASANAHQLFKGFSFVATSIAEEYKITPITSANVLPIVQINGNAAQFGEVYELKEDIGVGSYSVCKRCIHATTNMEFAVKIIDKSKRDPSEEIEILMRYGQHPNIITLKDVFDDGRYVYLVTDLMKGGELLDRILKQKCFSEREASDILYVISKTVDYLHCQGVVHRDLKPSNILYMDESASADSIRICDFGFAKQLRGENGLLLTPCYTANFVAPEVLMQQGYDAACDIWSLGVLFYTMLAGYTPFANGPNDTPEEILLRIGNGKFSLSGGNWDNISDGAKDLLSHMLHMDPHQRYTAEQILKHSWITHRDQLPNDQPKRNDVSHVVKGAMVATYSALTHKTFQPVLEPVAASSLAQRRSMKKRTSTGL

| Structure (SMILES) | Kd (Adenosine kinase) | Kd [1] | Kd [2] | Kd [3] | Kd [4] | Kd [5] | Kd [6] | Kd [7] | Kd [8] | Kd [9] | Kd (Wee1-like protein kinase) |
| --- | --- | --- | --- | --- | --- | --- | --- | --- | --- | --- | --- |
| Cc1cccc(-c2nn3c(c2-c2ccnc4ccc(C(N)=O)cc24)CCC3)n1 [GALUNISERTIB] | > 30 µM (inactive) | > 30 µM (inactive) | > 30 µM (inactive) | > 30 µM (inactive) | > 30 µM (inactive) | > 30 µM (inactive) | > 30 µM (inactive) | > 30 µM (inactive) | > 30 µM (inactive) | > 30 µM (inactive) | > 30 µM (inactive) |
| COc1ccc(S(=O)(=O)N(C(C)=O)c2ccccc2/C=C/c2cc[n+]([O-])cc2)cc1 [HMN-214] | > 30 µM (inactive) | > 30 µM (inactive) | > 30 µM (inactive) | > 30 µM (inactive) | > 30 µM (inactive) | > 30 µM (inactive) | > 30 µM (inactive) | > 30 µM (inactive) | > 30 µM (inactive) | > 30 µM (inactive) | > 30 µM (inactive) |
| CNC(=O)c1cccc2cc(Oc3ccnc4cc(OCC5(N)CC5)c(OC)cc34)ccc12 [LUCITANIB] | > 30 µM (inactive) | > 30 µM (inactive) | > 30 µM (inactive) | > 30 µM (inactive) | > 30 µM (inactive) | > 30 µM (inactive) | > 30 µM (inactive) | > 30 µM (inactive) | > 30 µM (inactive) | > 30 µM (inactive) | > 30 µM (inactive) |
| CNC(=O)c1nn(C)c2c1C(C)(C)Cc1cnc(Nc3ccc(N4CCN(C)CC4)cc3)nc1-2 [MILCICLIB] | > 30 µM (inactive) | > 30 µM (inactive) | > 30 µM (inactive) | > 30 µM (inactive) | > 30 µM (inactive) | > 30 µM (inactive) | > 30 µM (inactive) | > 30 µM (inactive) | 5.31 µM (active) | 10.6 µM (active) | 0.013 µM (active) |
| CN(C[C@@H]1COCCO1)S(=O)(=O)Nc1ccc2ccc3ncc(-c4cnn(C)c4)cc3c(=O)c2c1 [MK-2461] | > 30 µM (inactive) | > 30 µM (inactive) | > 30 µM (inactive) | > 30 µM (inactive) | > 30 µM (inactive) | > 30 µM (inactive) | > 30 µM (inactive) | > 30 µM (inactive) | > 30 µM (inactive) | > 30 µM (inactive) | > 30 µM (inactive) |
| Cn1cc(-c2cnc3ccc4ccc(CS(=O)(=O)NCc5ccccn5)cc4c(=O)c3c2)cn1 [MK-8033] | > 30 µM (inactive) | > 30 µM (inactive) | > 30 µM (inactive) | > 30 µM (inactive) | > 30 µM (inactive) | > 30 µM (inactive) | > 30 µM (inactive) | > 30 µM (inactive) | > 30 µM (inactive) | > 30 µM (inactive) | > 30 µM (inactive) |
| CCCCCCCCCCCCCCCCCCOP(=O)([O-])OC1CC[N+](C)(C)CC1 [PERIFOSINE] | > 30 µM (inactive) | > 30 µM (inactive) | > 30 µM (inactive) | > 30 µM (inactive) | > 30 µM (inactive) | > 30 µM (inactive) | > 30 µM (inactive) | > 30 µM (inactive) | > 30 µM (inactive) | > 30 µM (inactive) | > 30 µM (inactive) |

Now from value to compound:

| Kd (Adenosine kinase) | Kd [1] | Kd [2] | Kd [3] | Kd [4] | Kd [5] | Kd [6] | Kd [7] | Kd [8] | Kd [9] | Kd (Wee1-like protein kinase) | Structure (SMILES) |
| --- | --- | --- | --- | --- | --- | --- | --- | --- | --- | --- | --- |
| > 30 µM (inactive) | > 30 µM (inactive) | > 30 µM (inactive) | > 30 µM (inactive) | > 30 µM (inactive) | > 30 µM (inactive) | > 30 µM (inactive) | > 30 µM (inactive) | > 30 µM (inactive) | > 30 µM (inactive) | > 30 µM (inactive) | FC(F)(F)c1ccc(/C=C/c2nc(COc3ccc(CCCCn4ccnn4)cc3)co2)cc1 [MUBRITINIB] |
| > 30 µM (inactive) | > 30 µM (inactive) | > 30 µM (inactive) | > 30 µM (inactive) | > 30 µM (inactive) | > 30 µM (inactive) | > 30 µM (inactive) | > 30 µM (inactive) | > 30 µM (inactive) | > 30 µM (inactive) | > 30 µM (inactive) | COc1ncc(-c2ccc3nccc(-c4ccnnc4)c3c2)cc1NS(=O)(=O)c1ccc(F)cc1F [OMIPALISIB] |
| > 30 µM (inactive) | > 30 µM (inactive) | > 30 µM (inactive) | > 30 µM (inactive) | 0.873 µM (active) | > 30 µM (inactive) | 0.004 µM (active) | > 30 µM (inactive) | 2.08 µM (active) | > 30 µM (inactive) | 2.77 µM (active) | Cc1nc(Nc2n[nH]c3c2CN(C(=O)N[C@H](CN(C)C)c2ccccc2)C3(C)C)c2sccc2n1 [PF-03758309] |
| > 30 µM (inactive) | > 30 µM (inactive) | > 30 µM (inactive) | > 30 µM (inactive) | > 30 µM (inactive) | > 30 µM (inactive) | > 30 µM (inactive) | > 30 µM (inactive) | > 30 µM (inactive) | > 30 µM (inactive) | > 30 µM (inactive) | Cc1cnc(NC(=O)Nc2cc(Br)c(C)cc2OC[C@@H]2CNCCO2)cn1 [RABUSERTIB] |
| > 30 µM (inactive) | > 30 µM (inactive) | > 30 µM (inactive) | > 30 µM (inactive) | > 30 µM (inactive) | > 30 µM (inactive) | > 30 µM (inactive) | > 30 µM (inactive) | > 30 µM (inactive) | > 30 µM (inactive) | > 30 µM (inactive) | CO[C@H]1C[C@@H]2CC[C@@H](C)[C@@](O)(O2)C(=O)C(=O)N2CCCC[C@H]2C(=O)O[C@H]([C@H](C)C[C@@H]2CC[C@@H](OP(C)(C)=O)[C@H](OC)C2)CC(=O)[C@H](C)/C=C(\C)[C@@H](O)[C@@H](OC)C(=O)[C@H](C)C[C@H](C)/C=C/C=C/C=C/1C [RIDAFOROLIMUS] |
